Experimental data from US20240150377A1, “MODULATORS OF CYSTIC FIBROSIS TRANSMEMBRANE CONDUCTANCE REGULATOR” (VERTEX PHARMACEUTICALS INCORPORATED, priority 2020, published 2024).

Target: T1, CFTR (Homo sapiens, UniProt P13569, DEL508-508)
T1 construct: endogenous in cells; host or cells: primary human bronchial epithelial cells from CF subjects (F508del/MF-HBE), differentiated at air-liquid interface
Assay: HBE2 assay: Ussing chamber assay of CFTR-mediated short-circuit currents
Type: cell-based
Settings: 3 μM corrector; F508del/MF-HBE cells; with 44 nM potentiator, 18-24 hours, 20% human serum
Procedure, shortened: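 F508del/MF-HBE cultured >14 days at air-liquid interface, mounted in Ussing chambers; transepithelial short-circuit current recorded under voltage clamp (Vhold=0 mV) at 37 °C. CFTR-mediated ISC (μA/cm^2) taken as peak forskolin response relative to steady-state current after inhibition; corrector activity assessed this way.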

T1 sequence (P13569 with tags, fused parts or gaps DEL508-508): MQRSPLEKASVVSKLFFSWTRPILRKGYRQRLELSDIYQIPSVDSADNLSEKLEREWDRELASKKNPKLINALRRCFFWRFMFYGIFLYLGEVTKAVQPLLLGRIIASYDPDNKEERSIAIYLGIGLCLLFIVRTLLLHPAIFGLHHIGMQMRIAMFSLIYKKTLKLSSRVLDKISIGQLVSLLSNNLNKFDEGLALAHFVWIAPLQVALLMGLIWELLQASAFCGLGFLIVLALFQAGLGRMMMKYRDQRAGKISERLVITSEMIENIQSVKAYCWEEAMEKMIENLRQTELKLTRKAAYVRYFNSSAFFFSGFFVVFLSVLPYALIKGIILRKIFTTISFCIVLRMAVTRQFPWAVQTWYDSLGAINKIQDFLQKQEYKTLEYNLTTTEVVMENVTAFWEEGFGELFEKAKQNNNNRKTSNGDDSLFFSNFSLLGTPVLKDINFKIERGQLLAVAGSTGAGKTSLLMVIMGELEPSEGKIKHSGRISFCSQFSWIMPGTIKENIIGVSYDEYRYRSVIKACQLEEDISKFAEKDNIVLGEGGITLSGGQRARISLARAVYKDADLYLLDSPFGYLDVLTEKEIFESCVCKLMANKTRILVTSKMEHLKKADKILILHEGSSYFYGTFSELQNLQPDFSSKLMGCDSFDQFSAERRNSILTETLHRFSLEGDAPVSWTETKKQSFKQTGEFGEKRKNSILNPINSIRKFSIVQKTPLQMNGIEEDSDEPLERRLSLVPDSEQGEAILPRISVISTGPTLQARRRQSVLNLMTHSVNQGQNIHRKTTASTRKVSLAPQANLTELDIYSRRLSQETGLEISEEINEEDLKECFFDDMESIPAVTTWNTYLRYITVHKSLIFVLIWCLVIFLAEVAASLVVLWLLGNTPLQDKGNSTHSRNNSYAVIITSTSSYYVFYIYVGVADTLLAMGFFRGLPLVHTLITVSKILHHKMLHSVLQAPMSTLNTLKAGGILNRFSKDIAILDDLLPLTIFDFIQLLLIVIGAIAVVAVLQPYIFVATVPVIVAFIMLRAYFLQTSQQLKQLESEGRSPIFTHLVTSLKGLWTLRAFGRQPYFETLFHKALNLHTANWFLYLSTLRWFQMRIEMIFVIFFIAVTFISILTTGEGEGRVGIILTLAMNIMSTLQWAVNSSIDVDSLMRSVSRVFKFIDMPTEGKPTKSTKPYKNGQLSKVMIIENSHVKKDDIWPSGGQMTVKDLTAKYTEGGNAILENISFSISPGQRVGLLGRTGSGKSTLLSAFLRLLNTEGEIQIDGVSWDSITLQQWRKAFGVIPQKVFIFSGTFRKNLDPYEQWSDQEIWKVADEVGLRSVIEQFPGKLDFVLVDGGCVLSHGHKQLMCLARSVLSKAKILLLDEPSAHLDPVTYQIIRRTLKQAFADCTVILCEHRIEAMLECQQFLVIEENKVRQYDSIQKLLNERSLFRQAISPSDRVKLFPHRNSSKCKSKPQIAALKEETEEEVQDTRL

| Structure (SMILES) | HBE2 Activity at 3 μM (%) |
| --- | --- |
| Cc1cccc(C)c1-c1cc2nc(n1)NS(=O)(=O)c1cccc(c1)C(=O)N(Cc1cncc(N(C)C3CCC3)n1)[C@H](CC1CC(C)(C)C1)CO2 (stereo in doubt) [Compound 1340, 12-[[6-[cyclobutyl(methyl)amino]pyrazin-2-yl]methyl]-11-[(3,3-dimethylcyclobutyl)methyl]-6-(2,6-dimethylphenyl)-2,2-dioxo-9-oxa-2λ^6-thia-3,5,12,19-tetrazatricyclo[12.3.1.14,8]nonadeca-1(18),4(19),5,7,14,16-hexaen-13-one] | ++ (++ is 30-60%) |
| Cc1cccc(C)c1-c1cc2nc(n1)NS(=O)(=O)c1cccc(c1)C(=O)N(Cc1cncc(N3CCC[C@H]3C)n1)[C@H](CC1CCCCC1)CO2 [Compound 1331, (11R)-11-(Cyclohexylmethyl)-6-(2,6-dimethylphenyl)-12-[[6-[(2R)-2-methylpyrrolidin-1-yl]pyrazin-2-yl]methyl]-2,2-dioxo-9-oxa-2^6-thia-3,5,12,19-tetrazatricyclo[12.3.1.14,8]nonadeca-1(18),4(19),5,7,14,16-hexaen-13-one] | +++ (+++ is >60+) |
| CCC(C)CN(C)c1cncc(CN2C(=O)c3cccc(c3)S(=O)(=O)Nc3nc(cc(-c4c(C)cccc4C)n3)OC[C@H]2CC(C)(C)C)n1 (some centres unmarked) [Compound 1727] | +++ (+++ is >60+) |
| Cc1cccc(C)c1-c1cc2nc(n1)NS(=O)(=O)c1cccc(c1)C(=O)N(Cc1cnc3cc(C(C)C)n(C)c3n1)[C@H](COC(C)C)CO2 [Compound 1919] | +++ (+++ is >60+) |
| Cc1cccc(C)c1-c1cc2nc(n1)NS(=O)(=O)c1cccc(c1)C(=O)N(Cc1cncc(N(C)CC(C)C)n1)[C@H](CCC1CC1)CO2 [Compound 1717] | +++ (+++ is >60+) |
| Cc1cccc(C)c1-c1cc2nc(n1)NS(=O)(=O)c1cccc(c1)C(=O)N(Cc1cncc(N3CCC[C@H]3C(C)C)n1)[C@H](CCC1CC1)CO2 [Compound 1720] | +++ (+++ is >60+) |
| Cc1cccc(C)c1-c1cc2nc(n1)NS(=O)(=O)c1cccc(c1)C(=O)N(Cc1cncc(N3CCCC3C)n1)[C@H](C1CC(C)(C)C1)CO2 (single isomer, unassigned) [Compound 1337] | ++ (++ is 30-60%) |
| Cc1cccc(C)c1-c1cc2nc(n1)NS(=O)(=O)c1cccc(c1)C(=O)N(Cc1cncc(N(C)CC(C)(C)F)n1)[C@H](CC(C)(C)C)CO2 [Compound 1759] | +++ (+++ is >60+) |
| COC[C@H]1CCCCN1c1cncc(CN2C(=O)c3cccc(c3)S(=O)(=O)Nc3nc(cc(-c4c(C)cccc4C)n3)OC[C@H]2CCC(C)(C)C)n1 [Compound 1857] | +++ (+++ is >60+) |
| Cc1cccc(C)c1-c1cc2nc(n1)NS(=O)(=O)c1cccc(c1)C(=O)N(Cc1cncc(N3CCCC4CCC43)n1)[C@H](CCC(C)(C)C)CO2 (stereo in doubt) [Compound 1781] | +++ (+++ is >60+) |
| Cc1cccc(C)c1-c1cc2nc(n1)NS(=O)(=O)c1cccc(c1)C(=O)N(Cc1cncc(C3CCOCC3)n1)[C@H](CCC(C)(C)C)CO2 [Compound 1879] | +++ (+++ is >60+) |
| Cc1cccc(C)c1-c1cc2nc(n1)NS(=O)(=O)c1cccc(c1)C(=O)N(Cc1cncc(N(C)C3CCC3)n1)[C@@H]1CCN(CCC(C)(C)C)C[C@H]1O2 [Compound 1766] | +++ (+++ is >60+) |
| Cc1cccc(C)c1-c1cc2nc(n1)NS(=O)(=O)c1cccc(c1)C(=O)N(Cc1cncc(N3CCC[C@H]3C(C)C)n1)[C@H](CC1CCCC1)CO2 [Compound 1846] | +++ (+++ is >60+) |
| CC[C@H]1CCCN1c1cncc(CN2C(=O)c3cccc(c3)S(=O)(=O)Nc3nc(cc(-c4c(C)cccc4C)n3)OC[C@H]2COC2CC2)n1 (stereo in doubt) [Compound 1890] | +++ (+++ is >60+) |
| Cc1cccc(C)c1-c1cc2nc(n1)NS(=O)(=O)c1cccc(c1)C(=O)N(Cc1cncc(N3CC[C@H]3COC(C)C)n1)[C@H](CCC(C)(C)C)CO2 [Compound 1868] | +++ (+++ is >60+) |
| Cc1cccc(C)c1-c1cc2nc(n1)NS(=O)(=O)c1cccc(c1)C(=O)N(Cc1cnc3cc(C(C)C)n(C)c3n1)[C@H](CC1CCCC1)CO2 [Compound 1334, (11R)-11-(Cyclopentylmethyl)-6-(2,6-dimethylphenyl)-12-[(6-isopropyl-5-methyl-pyrrolo[2,3-b]pyrazin-3-yl)methyl]-2,2-dioxo-9-oxa-2λ^6-thia-3,5,12,19-tetrazatricyclo[12.3.1.14,8]nonadeca-1(18),4(19),5,7,14,16-hexaen-13-one] | +++ (+++ is >60+) |
| Cc1cccc(C)c1-c1cc2nc(n1)NS(=O)(=O)c1cccc(c1)C(=O)N(Cc1cncc(N(C)C3CC4(CC4)C3)n1)[C@H](COC1CC1)CO2 [Compound 1904] | +++ (+++ is >60+) |

Same assay, conditions: 3 μM; F508del/MF-HBE cells; with 44 nM potentiator; 18-24 hours; 20% human serum

| Structure (SMILES) | HBE2 Activity at 3 μM (%) |
| --- | --- |
| Cc1cccc(C)c1-c1cc2nc(n1)NS(=O)(=O)c1cccc(c1)C(=O)N(Cc1ccn([C@H](C)C3CCOCC3)n1)[C@H](CC(C)(C)C)CO2 (stereo in doubt) [Compound 1456] | +++ (+++ is >60+) |
| CC(=O)N[C@H](C)c1cccc(CN2C(=O)c3cccc(c3)S(=O)(=O)Nc3nc(cc(-c4c(C)cccc4C)n3)OC[C@H]2CC(C)(C)C)n1 [Compound 1592] | +++ (+++ is >60+) |
| Cc1cccc(C)c1-c1cc2nc(n1)NS(=O)(=O)c1cccc(c1)C(=O)N(Cc1ncc(OC(C)C)cn1)[C@H](CC1CCC1)[C@@H](C)O2 [Compound 1566] | + (+ is <300)) |
| COCC1(N(C)c2cncc(CN3C(=O)c4cccc(c4)S(=O)(=O)Nc4nc(cc(-c5c(C)cccc5C)n4)OC[C@H]3CC(C)(C)C)n2)CCC1 [Compound 1635] | +++ (+++ is >60+) |
| Cc1cccc(C)c1-c1cc2nc(n1)NS(=O)(=O)c1cccc(c1)C(=O)N(Cc1cncc(N3CCOCC34CCC4)n1)[C@H](CC(C)(C)C)CO2 [Compound 1627] | +++ (+++ is >60+) |
| Cc1cccc(C)c1-c1cc2nc(n1)NS(=N)(=O)c1cccc(c1)C(=O)N(Cc1ncc(N3CC(C)(C)C3)cn1)[C@H](CC(C)(C)C)CO2 (single isomer, unassigned) [Compound 1312] | ++ (++ is 30-60%) |
| COC[C@H]1C[C@@H](N(C)c2cncc(CN3C(=O)c4cccc(c4)S(=O)(=O)Nc4nc(cc(-c5c(C)cccc5C)n4)OC[C@H]3CC(C)(C)C)n2)C1 [Compound 1619] | +++ (+++ is >60+) |
| CC(=O)N(C)c1cccc(CN2C(=O)c3cccc(c3)S(=O)(=O)Nc3nc(cc(-c4c(C)cccc4C)n3)OC[C@H]2CC(C)(C)C)n1 [Compound 1583] | +++ (+++ is >60+) |
| Cc1cccc(C)c1-c1cc2nc(n1)NS(=N)(=O)c1cccc(c1)C(=O)N(Cc1ncc(OC(C)C)cn1)[C@H](CC(C)(C)C)CO2 (some centres unmarked) [Compound 1574] | ++ (++ is 30-60%) |
| Cc1cccc(C)c1-c1cc2nc(n1)NS(=O)(=O)c1cccc(c1)C(=O)N(Cc1cccc(N3CCC[C@H]3C)n1)[C@H](CC1(C)CC1)CO2 [Compound 1569] | +++ (+++ is >60+) |
| COCCN(C)c1nc(CN2C(=O)c3cccc(c3)S(=O)(=O)Nc3nc(cc(-c4c(C)cccc4C)n3)OC[C@H]2CC(C)(C)C)co1 [Compound 1409] | +++ (+++ is >60+) |
| Cc1cccc(C)c1-c1cc2nc(n1)NS(=O)(=O)c1cccc(c1)C(=O)N(Cc1cncc(N3CCC[C@H]4COC[C@H]43)n1)[C@H](CC(C)(C)C)CO2 (stereo in doubt) [Compound 1679] | +++ (+++ is >60+) |
| Cc1cccc(C)c1-c1cc2nc(n1)NS(=O)(=O)c1cccc(c1)C(=O)N(Cc1ncc(OC(C)C)cn1)[C@H]([C@@H](C)C(C)C)CO2 (stereo in doubt) [Compound 1571] | + (+ is <300)) |
| Cc1cccc(C)c1-c1cc2nc(n1)NS(=O)(=O)c1cccc(c1)C(=O)N(Cc1cncc(N3C(=O)CCC3C(C)C)n1)[C@H](CC(C)(C)C)CO2 (stereo in doubt) [Compound 1675] | +++ (+++ is >60+) |
| Cc1cccc(C)c1-c1cc2nc(n1)NS(=O)(=O)c1cccc(c1)C(=O)N(Cc1cncc(N(C)C3CCC3)n1)[C@H](C1CC3(CCC3)C1)CO2 (single isomer, unassigned) [Compound 1320, 12-[[6-[Cyclobutyl(methyl)amino]pyrazin-2-yl]methyl]-6-(2,6-dimethylphenyl)-2,2-dioxo-11-spiro[3.3]heptan-2-yl-9-oxa-2λ^6-thia-3,5,12,19-tetrazatricyclo[12.3.1.14,8]nonadeca-1(18),4(19),5,7,14,16-hexaen-13-one] | +++ (+++ is >60+) |
| Cc1cccc(C)c1-c1cc2nc(n1)NS(=O)(=O)c1cccc(c1)C(=O)N(Cc1cncc(N(C)CCC(C)C)n1)[C@H](CC(C)(C)C)CO2 [Compound 1696] | +++ (+++ is >60+) |
| CCOc1cnc(CN2C(=O)c3cccc(c3)S(=O)(=O)Nc3nc(cc(-c4c(C)cccc4C)n3)OC[C@H]2CCC(C)C)nc1 [Compound 1599] | +++ (+++ is >60+) |

Same assay, conditions: F508del/MF-HBE cells; corrector at a range of concentrations with 44 nM potentiator, 18-24 hours, 20% human serum

| Structure (SMILES) | EC50 |
| --- | --- |
| Cc1cccc(C)c1-c1cc2nc(n1)NS(=O)(=O)c1cccc(c1)C(=O)N(Cc1cncc(N3CCC[C@H]3C(C)C)n1)[C@H](CCC1CC1)CO2 [Compound 1720] | < 1000 nM |

Same assay, conditions: F508del/MF-HBE cells; with 44 nM potentiator; 18-24 hours; 20% human serum

| Structure (SMILES) | EC50 |
| --- | --- |
| Cc1cccc(C)c1-c1cc2nc(n1)NS(=O)(=O)c1cccc(c1)C(=O)N(Cc1cncc(N(C)C3CCC3)n1)[C@H](C1CC3(CCC3)C1)CO2 (single isomer, unassigned) [Compound 1320, 12-[[6-[Cyclobutyl(methyl)amino]pyrazin-2-yl]methyl]-6-(2,6-dimethylphenyl)-2,2-dioxo-11-spiro[3.3]heptan-2-yl-9-oxa-2λ^6-thia-3,5,12,19-tetrazatricyclo[12.3.1.14,8]nonadeca-1(18),4(19),5,7,14,16-hexaen-13-one] | < 1000 nM |

Same assay, conditions: F508del/MF-HBE cells; with 44 nM potentiator; 18-24 hours; 20% human serum; read-out: HBE2 Max activity (%)

| Structure (SMILES) | Emax |
| --- | --- |
| Cc1cccc(C)c1-c1cc2nc(n1)NS(=O)(=O)c1cccc(c1)C(=O)N(Cc1cncc(N3CCC[C@H]3C(C)C)n1)[C@H](CCC1CC1)CO2 [Compound 1720] | > 60% |
| Cc1cccc(C)c1-c1cc2nc(n1)NS(=O)(=O)c1cccc(c1)C(=O)N(Cc1cncc(N(C)C3CCC3)n1)[C@H](C1CC3(CCC3)C1)CO2 (single isomer, unassigned) [Compound 1320, 12-[[6-[Cyclobutyl(methyl)amino]pyrazin-2-yl]methyl]-6-(2,6-dimethylphenyl)-2,2-dioxo-11-spiro[3.3]heptan-2-yl-9-oxa-2λ^6-thia-3,5,12,19-tetrazatricyclo[12.3.1.14,8]nonadeca-1(18),4(19),5,7,14,16-hexaen-13-one] | > 60% |
